Source: US7879865B2, “Treatment of cancer of the brain using histone deacetylase inhibitors” (Sloan-Kettering Institute for Cancer Research, priority 2001, dated 2011)

What was measured:
[1] = test system: histone deacetylase (HDAC); experiment: Acetylated histone levels in mouse tissues after IP injection (Western blot of isolated histones); format: in vivo; conditions: mice, three injections at 1 hour intervals, SAHA 100 mg/kg, pyroxamide 200 mg/kg
Method: FIG. […]
Each mouse was administered three injections at the indicated dose at 1 hour intervals. After the final IP injection tissues (brain, spleen or liver) were isolated at the times indicated. Histones were isolated from tissues essentially as described by Yoshida et al., (1990) J. Biol. Chem. 265:17174-17179. Equal amounts of histones (1 μg) were electrophoresed on 15% SDS-polyacrylamide gels and transferred to Hybond-P filters (Amersham). Filters were blocked with 3% milk and probed with a rabbit purified polyclonal anti-acetylated histone H4 antibody (αAc-H4) and anti-acetylated histone H3 antibody (αAc-H3) (Upstate Biotechnology, Inc.). Levels of acetylated histone were visualized using a horseradish peroxidase-conjugated goat anti-rabbit antibody (1:5000) and the SuperSignal chemiluminescent substrate (Pierce). As a loading control for the histone proteins, parallel gels were run and stained with Coomassie Blue (CB).

tumor growth = conditions: cited from earlier work
[2] = test system: histone deacetylase enzyme; conditions: cited from earlier work
[3] = test system: transformed cells in culture; conditions: cited from earlier work

Structure (SMILES)	crossing of the blood brain barrier [1]	inhibition of HDAC activity / accumulation of acetylated histones in the brain ([1]; brain histones, anti-AcH3/AcH4 Western blot)	toxicity to the animal (tumor growth; animals in tumor growth studies)	accumulation of acetylated histones in the tumor (tumor growth; tumor)	binding to histone deacetylase enzyme [2]	cell cycle arrest, differentiation and/or apoptosis [3]
O=C(CCCCCCC(=O)Nc1cccnc1)NO [pyroxamide]	can cross the blood brain barrier	significantly inhibit HDAC activity causing the accumulation of acetylated histones in the brain	–	–	–	–
O=C(CCCCCCC(=O)Nc1ccccc1)NO [SAHA, suberoylanilide hydroxamic acid]	can cross the blood brain barrier	–	no toxicity to the animal	associated with an accumulation of acetylated histones in the tumor	bind directly in the catalytic pocket of the histone deacetylase enzyme	induces cell cycle arrest, differentiation and/or apoptosis of transformed cells in culture
